Results reported in patent US20080176781A1, “Perfumes for linear citrus release in rinse-off systems” (priority 2007, published 2008).

Assay: Odor detection threshold (ODT)
Design: unit not given here
Text: Within these defined water-release groups, odorants are then further described based on their experimentally determined odor detection thresholds (ODT) to further characterize the odor impact or olfactive intensity of a citrus and other olfactive types within the herein-described released group of odorants.
Upon their release in headspace, odorants are detected based on their odor detection threshold values. Odor detection thresholds are defined as the lowest concentration of odorants in a selected medium (air or water) to be detected. By including odor values of odorants in the model, one can further improve on the values for predicted performance of once odorants are released from the partition into the air.
Various databases for experimental odor detection threshold values in various partitions such as water and air are available. See Compilation of Odor and Taste Threshold Values Data, American Society for Testing and Materials, F. A. Fazzalari Editor; Booleans Aroma Chemical Information Service (BACIS)).

Q: For C=CC(C)(O)CCC=C(C)CC (mixture of isomers) [ETHYL LINALOOL], which odt (Table 17) is on record?
A: 120

Q: Which odt (Table 15) does the source give for CCCCCCCCCC=O [ALDEHYDE C10 (DECANAL), DECANAL] here?
A: 6.7

Q: Which results are given for CCCCCCCC=O [ALDEHYDE C 8 (OCTANAL), OCTANAL]?
A: odt (Table 15): 4.6; odt (Table 17): 4.6

Q: With C=CCOC(=O)CCC1CCCCC1 [ALLYL CYCLOHEXYL PROPIONATE] as the molecule, how does the odt (Table 13) read?
A: 31.00

Q: For CC/C=C\CCOC(=O)c1ccccc1O [CIS-3-HEXENYL SALICYLATE], which odt (Table 13) is on record?
A: 1.90

Q: Which odt (Table 13) does the source give for CCCCCCCCCCCC#N [LAURONITRILE] here?
A: 5.70

Q: With CCCCCCC#CC(=O)OC [METHYL OCTINE CARBONATE] as the molecule, how does the odt (Table 17) read?
A: 9.7

Q: With CCCCCCCCCCC=CC#N [TRIDECEN 2 NITRILE] as the molecule, how does the odt (Table 15) read?
A: 6.7

Q: Which odt (Table 15) does the source give for CCC=C(C)C(O)CCCCC (centres unmarked) [UNDECAVERTOL, 4-Methyl-3-decen-5-ol] here?
A: 26

Q: And the odt (Table 17)?
A: 26
